Results published in publication PMC8648000 (Bioorganic & medicinal chemistry letters, 2021).
Each block holds one compound with its values, some of them ahead of it.

Experiments:
human M4 (hM4) receptor = target: T1, human M4 (hM4) receptor (Homo sapiens, UniProt P08173); type: cell-based; conditions: for hM4 EC50: hM4/Gqi5-CHO cells, EC20 acetylcholine, n=1 experiment in triplicate; for fold increase in functional M4 potency versus 24e: compared with 24e
T1 sequence (P08173 1-479): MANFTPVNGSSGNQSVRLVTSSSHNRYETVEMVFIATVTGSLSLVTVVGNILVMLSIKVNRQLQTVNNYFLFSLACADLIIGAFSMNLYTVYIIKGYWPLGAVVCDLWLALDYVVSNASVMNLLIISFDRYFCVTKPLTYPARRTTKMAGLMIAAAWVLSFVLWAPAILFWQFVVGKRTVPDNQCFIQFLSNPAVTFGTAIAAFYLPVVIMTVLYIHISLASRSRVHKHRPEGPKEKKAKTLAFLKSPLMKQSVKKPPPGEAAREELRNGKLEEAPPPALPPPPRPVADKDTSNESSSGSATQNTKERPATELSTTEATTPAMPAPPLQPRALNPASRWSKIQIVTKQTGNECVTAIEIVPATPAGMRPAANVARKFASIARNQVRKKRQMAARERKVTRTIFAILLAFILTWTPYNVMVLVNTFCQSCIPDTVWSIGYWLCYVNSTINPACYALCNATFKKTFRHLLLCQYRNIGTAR

[1] = Human microsomal intrinsic clearance and predicted hepatic clearance; type: in vitro ADME; conditions: microsomes
[2] = Rat microsomal intrinsic clearance and predicted hepatic clearance; type: in vitro ADME; conditions: microsomes
Rat plasma:brain level = type: in vivo; conditions: SD, brain and plasma, iv, 0.2 mg/kg; for Kp at […]: Kpuu, brain:plasma, SD Rat, 0.2 mg/kg IV

Structure (SMILES): Cc1cc(C)c2c(n1)sc1c(NCc3ccc(C(C)(C)O)cc3F)ncnc12 [16n]
fold decrease (loss) in hM4 potency versus 16m (human M4 (hM4) receptor; compared with 16m): ~ 2.5 fold

Structure (SMILES): Cc1cc(C)c2c(n1)sc1c(NCc3ccc(S(C)(=O)=O)cc3)ncnc12 [16o]
CLint scaled [1]: 28 mL/min/kg
EC50 (human M4 (hM4) receptor): < 350 nM
CLint scaled [2]: 176 mL/min/kg
Kp uu at […] (Rat plasma:brain level): 0.21

Structure (SMILES): Cc1cc(C)c2c(n1)oc1c(N3CCCC3)ncnc12 [17a]
hM4 EC50 (human M4 (hM4) receptor): complete loss of activity

Structure (SMILES): Cc1cc(C)c2c(n1)oc1c(NC3CCC3)ncnc12 [17c]
fold potency decrease versus 16v (human M4 (hM4) receptor; compared with 16v): 4.4 fold

Structure (SMILES): COc1ccc(CNc2ncnc3c2oc2nc(C)cc(C)c23)cc1F [17d]
hM4 EC50 (human M4 (hM4) receptor): complete loss of activity

Structure (SMILES): Cc1cc(C)c2c(n1)oc1c(NCc3ccc(C(C)(C)O)cc3)ncnc12 [17e]
hM4 EC50 (human M4 (hM4) receptor): complete loss of activity

Structure (SMILES): Cc1cc(C)c2c(n1)oc1c(NC3CN(c4ncc(C(F)(F)F)cn4)C3)ncnc12 [17f]
hM4 EC50 (human M4 (hM4) receptor): complete loss of activity

Structure (SMILES): Cc1cc(C)c2c(n1)sc1c(NCc3ccc(C(C)(C)O)cc3)nccc12 [18b]
CLint scaled [1]: 50 mL/min/kg
EC50 (human M4 (hM4) receptor): < 350 nM
fold increase in hM4 potency versus 16m (human M4 (hM4) receptor; compared with 16m): ~ 2.8 fold
CLint scaled [2]: 334 mL/min/kg
Kp uu at […] (Rat plasma:brain level): 1.16

Structure (SMILES): Cc1cc(C)c2c(n1)sc1c(NC3CN(c4ncc(C(F)(F)F)cn4)C3)nccc12 [18c]
fold increase in hM4 potency versus 16p (human M4 (hM4) receptor; compared with 16p): ~ 44 fold

Structure (SMILES): Cc1cc(C)c2c(n1)sc1c(N3CCCC3)nccc12 [18d]
CLint scaled [1]: 161 mL/min/kg
EC50 (human M4 (hM4) receptor): < 350 nM
CLint scaled [2]: 2100 mL/min/kg
Kp uu at […] (Rat plasma:brain level): 4.87

Structure (SMILES): Cc1cc(C)c2c(n1)sc1c(NC3CCC3)nccc12 [18g]
CLint scaled [1]: 345 mL/min/kg
EC50 (human M4 (hM4) receptor): < 350 nM
fold increase in functional hM4 potency versus 16v (human M4 (hM4) receptor; compared with 16v): ~ 4 fold
fold increase in human M4 activity versus parent compound VU0152100 (human M4 (hM4) receptor; compared with VU0152100): 6 fold
CLint scaled [2]: 3860 mL/min/kg
Kp uu at […] (Rat plasma:brain level): 4.18

Structure (SMILES): Cc1cc(C)c2c(n1)sc1c(OCc3ccc(C(C)(C)O)cc3)ncnc12 [compound 19]
fold decrease (loss) in hM4 potency versus 16m (human M4 (hM4) receptor; compared with 16m): 9.6 fold

Next, values leading:

CLint scaled [1]: 134 mL/min/kg
EC50 (human M4 (hM4) receptor): < 350 nM
CLint scaled [2]: 1900 mL/min/kg
Kp uu at […] (Rat plasma:brain level): 0.65
Kp at […] (Rat plasma:brain level): 0.35 to 0.65
Structure (SMILES): Cc1cc(C)c2c(n1)sc1c(N3CCCC3)ncnc12 [16w]

CLint scaled [1]: 296 mL/min/kg
EC50 (human M4 (hM4) receptor): < 350 nM
CLint scaled [2]: 741 mL/min/kg
Kp uu at […] (Rat plasma:brain level): 0.27
Structure (SMILES): Cc1cc(C)c2c(n1)sc1c(N3CCC3)ncnc12 [16x]

CLint scaled [1]: 129 mL/min/kg
CLint scaled [2]: 594 mL/min/kg
Kp uu at […] (Rat plasma:brain level): 0.4
Kp at […] (Rat plasma:brain level): 0.35 to 0.65
Structure (SMILES): Cc1cc(C)c2c(n1)sc1c(N3CC4(COC4)C3)ncnc12 [16y]

fold increase in hM4 functional potency versus 24a (human M4 (hM4) receptor; compared with 24a): ~45 fold
Structure (SMILES): Cc1cc(C)c2c(n1)sc1c(C3CCOCC3)ncnc12 [24d]

fold loss of hM4 functional potency versus 24d (human M4 (hM4) receptor; compared with 24d): ~ 40 fold
Structure (SMILES): Cc1cc(C)c2c(n1)sc1c(C3CCNCC3)ncnc12 [24e]

fold increase in functional M4 potency versus 24e (human M4 (hM4) receptor): ~ 10 fold
Structure (SMILES): Cc1cc(C)c2c(n1)sc1c(C3CCN(C(=O)C4CC4)CC3)ncnc12 [28a]

CLint scaled [1]: 25 mL/min/kg
fold increase in functional M4 potency versus 24e (human M4 (hM4) receptor): 26 fold
CLint scaled [2]: 367 mL/min/kg
Kp uu at […] (Rat plasma:brain level): 0.35
Kp at […] (Rat plasma:brain level): 0.35 to 0.65
Structure (SMILES): Cc1cc(C)c2c(n1)sc1c(C3CCN(C(=O)C4(C)CC4)CC3)ncnc12 [28b]

hM4 EC50 (human M4 (hM4) receptor): complete loss of activity
Structure (SMILES): Cc1cc(C)c2c(n1)sc1c(C3CCN(c4cncc(F)c4)CC3)ncnc12 [compound 26]

hM4 EC50 (human M4 (hM4) receptor): complete loss of M4 potency
Structure (SMILES): Cc1cc(C)c2c(n1)sc1c(C3CCN(CC4CC4)CC3)ncnc12 [compound 30]
